Entries after “also recorded” stand apart in the source; their conditions may differ.
Tests used:
[1] = test system: NF-κB; details: human HaCaT keratinocytes; micromolar concentrations; DOI: 10.1002/ptr.6400; cited from earlier work
[2] = test system: CXCL-9; assay: CXCL-9 release by the colonocyte (ELISA); type: cell-based, human; details: IL-1β/IFN-γ, extracts subjected to digestion 100 μg/mL, cannabinoids 8 μM
Procedure: (§1) FIGS. 18A, 18B, 18C and 18D: Effect of the extracts 5 and 6 subjected to intestinal digestion (5d, 6d) and of the cannabinoids (CBD, CBG) on the release of inflammatory mediators (CXCL-9, CXCL-10, CCL-20, IL-15) by the colonocyte. The extracts (100 μg/mL) and the isolated molecules (8 μM) were used in the treatment concomitant with pro-inflammatory stimulation (IL-1β/IFN-γ), arbitrarily placed at 100% . * p<0.05; ** p<0.01; *** p<0.001 (one-way ANOVA test) vs IL-1β/IFN-γ. The data are the mean±SEM of at least three duplicate experiments.
(§2) Consequently, the effect of the extracts at the protein level, especially in the colonocyte, was evaluated by ELISA assays for inflammatory mediators selected starting from the transcriptional data. All mediators are regulated by NF-κB.

[3] = test system: CXCL-9, CXCL-10; assay: Release of inflammatory mediators (CXCL-9, CXCL-10) by the enterocyte; type: cell-based, human; details: enterocyte model; IL-1β/IFN-γ; extracts subjected to digestion 100 μg/mL, cannabinoids 8 μM
Procedure: as §1, with “FIG. 19:” for “FIGS. 18A, 18B, 18C and 18D:”, “CXCL-10)” for “CXCL-10, CCL-20, IL-15)”, “enterocyte.” for “colonocyte.”
The same was highlighted with the use of pure cannabinoids. In analogy with the colonocyte, the release of IL-15 was found not relevant in the enterocyte model, compared to an increase at the transcriptional level.

[4] = test system: undifferentiated CaCo-2 cells (colonocytes); assay: Cytotoxicity / cell viability (MTT) in colonocytes
Procedure: Firstly, the cytotoxicity of the extracts in the undifferentiated CaCo-2 cells (colonocytes) at 100 μg/mL was evaluated.
In the first phase of the work, the combination of IL-1β (10 ng/ml) and IFN-γ (10 ng/mL) was selected as pro-inflammatory stimulation. During the third experimental phase, the cytotoxicity of the extracts in both colonocytes and enterocytes was compared, using this pro-inflammatory cocktail.

[5] = test system: CXCL10; assay: CXCL10 secretion in undifferentiated CaCo-2 cells (colonocytes) under pro-inflammatory stimulation; type: cell-based, human; details: cannabinoids 8 μM; for CXCL-10 release: colonocyte, IL-1β/IFN-γ, Phase 3, extracts subjected to digestion 100 μg/mL; for CXCL10 secretion: colonocytes, 10 ng/mL IFNγ and 10 ng/mL IL-1β, 24 hours, extracts 100 μg/mL
Procedure: Firstly, the individual cannabinoids CBD and CBG in undifferentiated cells (colonocytes) were analysed by comparing two different pro-inflammatory mixtures, in order to simplify the pro-inflammatory stimulation and the activation pathways involved. The pro-inflammatory mixture 50 ng/mL TNFα, 10 ng/mL LPS, 50 ng/ml IFNγ and 25 ng/ml IL-1ß mimics an inflammatory disease with a bacterial aetiology and was compared with a less complex mixture, consisting of 10 ng/mL IFNγ and 10 ng/mL IL-1β, deprived of the “bacterial” component, therefore more characteristic of an advanced inflammatory disease.
From the analysis of the pro-inflammatory genes most regulated by the application of the pro-inflammatory mixture, chemokines of the CXC family particularly over-expressed in the enterocyte and colonocyte emerged (FIG. 4).
The used concentration of the cannabinoids (8 μM) corresponds to a quantity equal to […] in the extracts at a concentration of 100 μg/mL.
Based on the results obtained, the effects of the different extracts were evaluated using the pro-inflammatory stimulation consisting of 10 ng/mL IFNγ and 10 ng/mL IL-1β.
as §2

[6] = test system: human microbiota of fecal origin; assay: Prebiotic effect: butyric acid (SCFA) production after fecal fermentation; details: for butyric acid (SCFA) production, Mean (n = 4): LC-MS analysis, human microbiota of fecal origin
Procedure: In the last phase of the project, the prebiotic effect of the extracts 5 and 6 towards enteric bacterial strains was evaluated by means of fecal fermentation followed by gene analysis of selected strains.
Following fermentation of the extracts, the level of butyric acid produced by the intestinal flora was measured as an indicator of SCFA production. The reliability of the quantitative analysis was reinforced by two different techniques, namely an ELISA assay and mass spectrometry.
Table 2 below reports the prebiotic effect of the extracts 5 and 6 subjected to intestinal digestion (5d, 6d) and of the cannabinoids (CBD, CBG) in terms of induction of butyric acid (SCFA) production by the human microbiota of fecal origin. The result is expressed in μg/mL (LC-MS analysis).

[7] = test system: CCL-20; assay: CCL-20 release by the colonocyte (ELISA); type: cell-based, human; details: IL-1β/IFN-γ, extracts subjected to digestion 100 μg/mL, cannabinoids 8 μM
Procedure: as §1, §2

[8] = test system: NF-κB transcription factor; assay: NF-κB driven transcription, luciferase reporter plasmid in colonocytes; type: cell-based, human; details: 10 ng/mL IFNγ and 10 ng/mL IL-1β, 6 hours, extracts 100 μg/mL, cannabinoids 8 μM
Description: The use of this promoter allows the effect of the extracts/active molecules on transcription driven by this transcription factor to be observed.

Compound | effect on NF-κB transcription factor [1] | CXCL-9 release [2] | release of inflammatory mediators [3] | cell viability / cytotoxicity (MTT) ([4]; 10 ng/mL IFNγ and 10 ng/mL IL-1β, 24 hours, extracts 100 μg/mL, cannabinoids 8 μM) | reduction in viability (MTT) ([4]; IL-1β/IFN-γ, 8 μM) [%] | CXCL-10 release [5] | CXCL10 secretion [5] | butyric acid (SCFA) production, Mean (n = 4) [6] [µg/mL] | CCL-20 release [7] | NF-κB driven transcription [8] | increase in butyric acid levels ([6]; fecal fermentation) [times]
C=C(C)[C@@H]1CCC(C)=C[C@H]1c1c(O)cc(CCCCC)cc1O [CBD, cannabidiol] | inhibitory effect | more or less marked inhibitory effect on all the mediators | never showed inhibitory effects | slight reduction in cell viability | −25 | more or less marked inhibitory effect on all the mediators | reduced CXCL10 secretion; also recorded: more active than CBG | 212.20 | more or less marked inhibitory effect on all the mediators | – | –
CCCCCc1cc(O)c(C/C=C(\C)CCC=C(C)C)c(O)c1 [CBG, cannabigerol] | – | participate in the inhibitory activity | never showed inhibitory effects | – | – | participate in the inhibitory activity | reduced CXCL10 secretion | 173.54 | – | more active than CBD | –
Inulin | – | – | – | – | – | – | – | 638.87 | – | – | 5
